The values that follow come from patent US20100068747A1, “Generic Assay for Monitoring Endocytosis” (Evotec Technologies GmbH, priority 2005, published 2010).

Test [1] deals with CHO/ETAR cells. As to the kind of experiment: Lectin labeling of live cells, CHO/ETAR. The class given is cell-based. The following applies: TRITC-lectin, 10 nM at maximum. Here is the method: Lectin labeling of live cells was conducted as follows: Cells were seeded as described above. After 24 hours cells were washed once with PBS and incubated in the incubator for another 2 hours in the respective standard medium without serum supplement to deprive them of serum factor mediated stimuli. This step was termed starvation period. Subsequently, cells were washed gently with PBS and incubated with 37° C. tempered assay medium comprised of Hank's Balanced Salt Solution (HBSS) pH 7.4, containing 20 mM HEPES and 30 mM D-glucose. The plate was left at RT for 30 minutes to slowly level its temperature and, thus, avoid capturing of temperature drop induced membrane dynamics. This period was termed leveling period. Then, assay medium was withdrawn and wells refilled with TRITC-lectin solutions at RT to start cell labeling. Several lectin concentrations in the low nano-molar range were tested. Molar concentrations were calculated from the data provided by Vector Labs. The plate was placed on a rotating shaker at low revolutions for 10 minutes while incubating. The start of the lectin incubation is referred to as assay starting point with t=0 min. After the 10 min incubation period the cells were gently washed with PBS and wells refilled with assay buffer at RT. Instantly thereafter, fluorescence signals were monitored predominately using the epifluorescence microscope.
(§1) The following microscopy and image analysis techniques were employed. When utilizing the epifluorescence microscope magnifications were adjusted according to the purpose of observation, e.g. single cell vs. cell collective. Concerning the filters U-MNU was used for Hoechst, U-MSWB for GFP, and U-N41007 for TRITC detection. Hoechst images were taken at 50 ms exposure time, GFP images at 100 to 200 ms and TRITC images needed 500 to 1000 ms. Overlay images were assembled with AnalySIS and tuned in color intensity to obtain the desired color contrast. Images taken to compare two experimental conditions, e.g. control vs. stimulus, featured identical exposure parameters. If possible, well areas were chosen that reflect similar states of confluence. Utilizing the Opera confocal fluorescence imager, the instrument was calibrated running standard methods for skew cropping (spatial camera alignments) and camera intensity normalization.

Test [2] concerns CHO/ETAR cells. In words: Lectin labeling of fixed cells, CHO/ETAR. It is filed as cell-based. The following applies: TRITC-lectin 10 nM and 20 nM. As for the experimental part:
Lectin labeling of fixed cells was conducted as follows: To detach confluent cells in order to prepare experiments for internalization studies, cells were always treated with EDTA solution instead of trypsin solution. For all seeding, washing, and labeling steps in 96-well plates a working volume of 100 μl per well was assessed. Cells were seeded out into a 96-well plate at different concentrations. U2OS/ETAR-GFP suspensions were adjusted to yield 2*10^4 cells/well, both of the CHO cell lines must be at 2.5*10^4 cells/well. Cells became confluent after 24 hours of incubation. In the following, they were washed with phosphate buffered saline (PBS) and fixed with 3% PFA for 20 minutes at RT. Then, cells were washed again with PBS and incubated in 10 nM and 20 nM solutions of each TRITC-lectin candidate in PBS, respectively. Again, cells were washed with PBS to remove excess lectin, and wells were refilled with PBS for analysis. For specificity controls, lectin solutions were incubated for 30 minutes prior to the application with an excess of the monosaccharide that represents the respective glyco-epitope.
as §1

For the substance “succinylated Triticum vulgaris (wheat germ) agglutin [sWGA]”, in the test on CHO/ETAR cells [1], the “Live cell staining of CHO/ETAR” value is on record as “single spot formation continued fairly slowly”. Further, the “Staining of CHO/ETAR” value in the test with CHO/ETAR cells [2] was “cell surface”.
